Experimental data taken from patent US20130217634A1, “PEPTIDES ABLE TO INTERFERE WITH THE INHIBITING ACTIVITY OF MDM2/MDM4 HETERODIMER TOWARDS P53 AND USE THEREOF FOR CANCER TREATMENT” (UNIVERSITA' DEGLI STUDI DI PERUGIA, priority 2012, published 2013).
*: point of attachment. FITC = O=C1OC2(c3ccc(O)cc3Oc3cc(O)ccc32)c2ccc(NC(=S)*)cc21; Ahx = NCCCCCC(=O)O

Assays:
[1] = target: T1, recombinant GST-MDM2 (Homo sapiens, UniProt Q00987); test: In vitro ubiquitination assay of p53 performed by recombinant GST-MDM2; type: biochemical
T1 construct: GST (N)
T1 sequence (Q00987 whole entry): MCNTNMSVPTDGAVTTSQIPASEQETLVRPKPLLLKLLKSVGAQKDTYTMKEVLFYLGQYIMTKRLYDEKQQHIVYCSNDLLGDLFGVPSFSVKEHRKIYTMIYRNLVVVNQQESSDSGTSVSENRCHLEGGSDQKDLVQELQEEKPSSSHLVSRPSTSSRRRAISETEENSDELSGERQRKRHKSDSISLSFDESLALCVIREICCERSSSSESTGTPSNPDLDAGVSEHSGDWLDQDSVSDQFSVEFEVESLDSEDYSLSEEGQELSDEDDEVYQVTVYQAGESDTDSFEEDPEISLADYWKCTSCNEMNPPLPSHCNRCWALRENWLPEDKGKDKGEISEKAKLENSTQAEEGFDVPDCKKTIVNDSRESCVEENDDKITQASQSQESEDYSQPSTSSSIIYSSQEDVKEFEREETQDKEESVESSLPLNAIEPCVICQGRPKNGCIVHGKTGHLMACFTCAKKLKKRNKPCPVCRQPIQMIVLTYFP
Text: (§1) Further experiments have been performed to define the role of peptide 3 composition in its molecular and biological activity. […] Supporting these new experimental data about the importance of Isoleucine 489 and Phenylalanine 488, molecular dynamic simulations have shown that these residues engage in specific hydrophobic and aromatic interactions with MDM2 (FIG. 11). In particular, Isoleucine 489 is harbored in a hydrophobic cleft composed of Alanine 434, Isoleucine 435 and Leucine 458 of MDM2 protein. Likewise, Phenylalanine 488 forms aromatic interactions with a Histidine residue (HID-457) of MDM2 protein.

[2] = test system: HCT116 p53−/− cells; test: Cell death by cytofluorimetric analysis (Propidium Iodide) of cells transfected with FITC tagged peptides; type: cell-based; settings: HCT116 p53−/− compared with wt
Procedure: (§2) Cytofluorimetric analysis was carried out on HCT116 wt and p53−/− cells transfected with FITC tagged peptides and stained with Propidium Iodide (PI). Percentage of dead cells was evaluated specifically among the transfected cells (green population).
(§3) Cytofluorimetric analysis was performed on HCT116 wt and p53−/− cells transfected with FITC tagged peptides and stained with Propidium Iodide (PI). Percentage of dead cells was evaluated specifically among the transfected cells (green population).
(§4) It has been investigated whether peptides were able to enter the cell simply by addition thereof at given concentration (5 μM) to cell culture medium and analyzing for the presence thereof by confocal and fluorescence microscopy, each peptide being labeled with green fluorophore (FAM). It has been observed that peptides were detected in cells only after transfection by liposomes. Successively, the ability of peptides to disrupt the binding by MDM4 or MDM2 immunoprecipitation after peptide transfection in HCT116 cancer cell line, and detection of presence of corresponding partner in immunocomplex by western blot assay have been evaluated. Two HCT116 wild type and HCT116 p53−/− syngeneic cell lines have been used in order to understand also observed effect dependence on the presence of p53.

[3] = test system: HCT116 wt cells; test: as above; type: cell-based; settings: for induction of apoptotic response / cellular apoptosis: HCT116 cells transfected with peptide
Procedure: as §2, §3, §4

[4] = target: T2, MDM4/MDM2 complex (Homo sapiens, UniProt O15151+Q00987); test: Immunoprecipitation / western blot of MDM4/MDM2 complex after peptide transfection in HCT116 cells; type: cell-based; settings: HCT116 wild type and p53−/−
T2 construct: immunoprecipitation of MDM4 has been carried out on cell lysates; endogenous in cells; host or cells: HCT116 wt and HCT116 p53-/- colon carcinoma cells
T2 sequence (O15151 whole entry): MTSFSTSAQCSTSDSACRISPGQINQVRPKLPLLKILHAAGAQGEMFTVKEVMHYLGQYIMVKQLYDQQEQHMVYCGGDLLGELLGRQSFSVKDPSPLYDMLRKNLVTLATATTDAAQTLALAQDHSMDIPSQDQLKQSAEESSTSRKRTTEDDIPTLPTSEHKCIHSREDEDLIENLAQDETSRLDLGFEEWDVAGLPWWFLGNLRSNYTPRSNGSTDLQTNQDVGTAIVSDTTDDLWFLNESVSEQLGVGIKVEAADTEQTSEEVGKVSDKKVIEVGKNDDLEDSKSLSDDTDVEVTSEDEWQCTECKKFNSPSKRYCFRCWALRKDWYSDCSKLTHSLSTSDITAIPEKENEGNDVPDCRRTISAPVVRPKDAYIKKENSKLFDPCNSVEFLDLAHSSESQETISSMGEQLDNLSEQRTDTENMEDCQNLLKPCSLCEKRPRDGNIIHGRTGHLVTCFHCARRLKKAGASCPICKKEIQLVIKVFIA
T2 sequence (Q00987 whole entry): as the sequence (Q00987 whole entry) above
Text: Transient transfection of peptides has been carried out in HCT116 wt and p53−/− colon carcinoma cell lines and the immunoprecipitation of MDM4 has been carried out on cell lysates in order to detect the presence of MDM2 within the immunocomplex, by western blot analysis.
Transient transfection of peptides has been carried out in HCT116 wt and p53−/− colon carcinoma cell lines and the immunoprecipitation of MDM4 has been performed on cell lysates in order to detect the presence of MDM2 within the immunocomplex by western blot analysis.
Cells have been lysed using Saito lysis modified reagent (50 mM Tris-HCl, pH 7.4, 0.15 M NaCl, 0.5% Triton-X100, 5 mM EDTA). […]
as §4, with “Two HCT116 wild type and HCT116 p53−/− syngeneic cell lines have been used in order to understand also observed effect dependence on the presence of p53.” left out

[5] = test system: HCT116 wt and p53−/− cells; test: TUNEL assay of apoptosis in cells transfected with FITC tagged peptides; type: cell-based; settings: among transfected (green) cells
Procedure: In order to specifically detect apoptotic cells, TUNEL assay was carried out in HCT116 wt and p53−/− cells transfected with FITC tagged peptides. Percentage of apoptotic cells was evaluated specifically among the transfected cells (green population).
as §1

[6] = target: T3, p53/MDM4 binding (Homo sapiens, UniProt O15151); test: Immunoprecipitation / western blot of p53 binding to MDM4 after peptide transfection in HCT116 cells; type: cell-based
T3 construct: MDM4 or MDM2 immunoprecipitation after peptide transfection in HCT116 cancer cell line; endogenous in cells; host or cells: HCT116 wt (p53+/+) colon carcinoma cells
T3 sequence (O15151 whole entry): as the sequence (O15151 whole entry) above
T3 sequence (P04637 whole entry partner): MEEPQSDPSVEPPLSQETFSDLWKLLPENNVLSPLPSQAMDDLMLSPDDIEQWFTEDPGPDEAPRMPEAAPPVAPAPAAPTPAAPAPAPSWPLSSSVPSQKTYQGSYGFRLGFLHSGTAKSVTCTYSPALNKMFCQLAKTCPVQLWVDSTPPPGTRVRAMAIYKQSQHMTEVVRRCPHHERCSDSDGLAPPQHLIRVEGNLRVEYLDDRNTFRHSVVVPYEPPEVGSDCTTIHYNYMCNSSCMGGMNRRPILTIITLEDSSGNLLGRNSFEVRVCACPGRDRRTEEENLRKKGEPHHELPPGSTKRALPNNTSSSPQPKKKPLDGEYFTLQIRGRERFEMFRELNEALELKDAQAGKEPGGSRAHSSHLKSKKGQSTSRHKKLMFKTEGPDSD
Procedure: Cells have been lysed using Saito lysis modified reagent (50 mM Tris-HCl, pH 7.4, 0.15 M NaCl, 0.5% Triton-X100, 5 mM EDTA). For p53 immunoprecipitation and BCL2 and MDM4 analysis EBC modified solution has been used (50 mM Tris-HCl, pH 7.4, 0.12 M NaCl, 0.4% NP-40, 1 mM EDTA, 1 Mm β-mercaptoethanol).
400 μg of total protein extract has been incubated with protein G (Invitrogen) for 2 hours under stirring at 4° C. in order not specific binding of proteins with said substrate can occur. Afterwards the cellular extract has been centrifuged, not specific complexes removed with precipitate and supernatant has been incubated for 16 hours with specific antibody. Successively, protein G has been added and incubated for 2 hour at 4° C. […]
as §4, with “Two HCT116 wild type and HCT116 p53−/− syngeneic cell lines have been used in order to understand also observed effect dependence on the presence of p53.” left out

inhibition of ubiquitination of p53 [1]	Substance	induced death in p53 lacking versus p53 harboring cells [2]	induction of apoptotic response / cellular apoptosis [3]	ability to dissociate MDM4/MDM2 complex [4]	induction of apoptosis (TUNEL) [5]	effect on binding of p53 to MDM4 [6]	cell death response in comparison to the control Scramble peptide ([3]; HCT116 p53+/+ cells)
ineffective	AIKIFVKVLEIQ (peptide composed with the same aminoacids of SEQ ID NO3 but arranged in different order) [Peptide SC3B]	–	–	–	–	–	–
ineffective	VQEAFKLIKIVI (peptide composed with the same aminoacids of SEQ ID NO3 but arranged in different order) [Peptide SC3A]	–	–	–	–	–	–

More lines, now with the values behind:

Substance	inhibition of ubiquitination of p53 [1]	induced death in p53 lacking versus p53 harboring cells [2]	induction of apoptotic response / cellular apoptosis [3]	ability to dissociate MDM4/MDM2 complex [4]	induction of apoptosis (TUNEL) [5]	effect on binding of p53 to MDM4 [6]	cell death response in comparison to the control Scramble peptide ([3]; HCT116 p53+/+ cells)
FITC-Ahx-KEIQLVIKVFIA-CONH2 (HELM PEPTIDE1{[O=C1OC2(c3ccc(O)cc3Oc3cc(O)ccc32)c2ccc(NC(=S)[*:2])cc21].[O=C(CCCCCN[*:1])[*:2]].K.E.I.Q.L.V.I.K.V.F.I.A.[am]}$$$$V2.0; SMILES CC[C@H](C)[C@H](NC(=O)[C@H](Cc1ccccc1)NC(=O)[C@@H](NC(=O)[C@H](CCCCN)NC(=O)[C@@H](NC(=O)[C@@H](NC(=O)[C@H](CC(C)C)NC(=O)[C@H](CCC(N)=O)NC(=O)[C@@H](NC(=O)[C@H](CCC(=O)O)NC(=O)[C@H](CCCCN)NC(=O)CCCCCNC(=S)Nc1ccc2c(c1)C(=O)OC21c2ccc(O)cc2Oc2cc(O)ccc21)[C@@H](C)CC)C(C)C)[C@@H](C)CC)C(C)C)C(=O)N[C@@H](C)C(N)=O) [Peptide 3, FITC-Ahx tagged, C-terminal amide]	inhibit the ubiquitinatin activity of MDM2 towards p53	meaningfully lower in p53 lacking than harboring cells	highly effective in inducing cellular apoptosis	highly effective in dissociating said two molecules	induce apoptosis	does not dissociate p53 from MDM4	–
KEIQLVIKVAEA (MDM4 sequence of the interaction domain between MDM4 and MDM2 from aa 479 to aa 490 of MDM4 in which FI in positions 10 and 11 of said sequence has been substituted with AE) [Peptide 3D, reference compound]	completely ineffective	–	–	–	completely ineffective	–	–
{FITC-Ahx}-ESSLPLNAIEPS-NH2 [Peptide 1]	–	–	induce a significant apoptotic response	suitable to dissociate said two proteins	–	able to preserve the binding of p53 to MDM4	significantly higher in comparison to the control Scramble peptide
